Values of other authors in US8481574B2, “Compounds as cannabinoid receptor ligands” (priority 2006, dated 2013).

Tests used:
animal models of pain = settings: animal models of acute thermal pain, persistent pain, inflammatory pain and neuropathic pain
[1] = at fully efficacious doses
rodent models of pain = settings: rodent models of neuropathic, incisional, and both chronic and acute inflammatory pain
rat = rat formalin model of persistent pain
microglia = settings: in vitro
[2] = system: CB1 receptor knockout mice
[3] = system: apolipoprotein E knockout mice; settings: low doses
mice = settings: model for post-menopausal osteoporosis

CN1CCCCC1Cn1cc(C(=O)c2cc([N+](=O)[O-])ccc2I)c2ccccc21 (stereo not shown) [AM-1241]
analgesic efficacy (animal models of pain): robust analgesic efficacy
CB1 receptor-mediated CNS side effects [1]: devoid of typical CB1 receptor-mediated CNS side effects

COc1ccc2c(c1)c(CCN1CCOCC1)c(C)n2C(=O)c1cccc(Cl)c1Cl [GW405833]
efficacy in pain models (rodent models of pain): efficacious
CB1 receptor-mediated CNS side effects [1]: devoid of typical CB1 receptor-mediated CNS side effects

CCCCCCC(C)(C)c1cc(OC)c([C@@H]2C=C(CO)[C@@H]3C[C@H]2C3(C)C)c(OC)c1 [HU-308]
antinociceptive response (rat): elicits an antinociceptive response

CCCC(C)(C)c1ccc2c(c1)OC(C)(C)[C@@H]1CC=C(C)C[C@@H]21 [JWH-133]
effect on β-amyloid-induced microglial activation and neurotoxicity (microglia): abrogated β-amyloid-induced microglial activation and neurotoxicity

(−)-Δ^9-Tetrahydrocannabinol [Δ^9-THC]
analgesic efficacy [2]: retains some analgesic efficacy
effect on progression of atherosclerotic lesions [3]: slowed the progression of atherosclerotic lesions

SR144528
effect on osteoclast activity (osteoclast): inhibit osteoclast activity
effect on ovariectomy-induced bone loss (mice): reverse ovariectomy-induced bone loss
